Test results from patent US20010011085A1, “4-SUBSTITUTED CEPHEM DERIVATIVES AS ELASTASE INHIBITORS” (priority 1995, published 2001).

Biological target: T1, human leukocyte elastase (HLE) (Homo sapiens, UniProt P08246)
T1 construct: purchased Elastin Product Company
T1 sequence (P08246 30-267): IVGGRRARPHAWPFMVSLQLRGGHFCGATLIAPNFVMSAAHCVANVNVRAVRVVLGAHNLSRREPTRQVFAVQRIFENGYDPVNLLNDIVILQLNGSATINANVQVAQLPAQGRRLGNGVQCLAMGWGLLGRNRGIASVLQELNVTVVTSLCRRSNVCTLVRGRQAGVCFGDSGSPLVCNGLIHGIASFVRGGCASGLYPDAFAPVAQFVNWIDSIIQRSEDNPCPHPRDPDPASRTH
Assay: Kinetic parameters for HLE inhibition (fluorogenic substrate assay)
Assay type: biochemical
Details: 37° C., 0.027M pH 7.4 phosphate buffer, substrate N-methoxysuccinyl-alanyl-prolyl-valyl-7-amido-4-methylcoumarin; for Ki: read-out: "Potency" Ki^ss (apparent dissociation constant of the HLE-inhibitor complex at steady state)
Procedure: The compounds of the present invention are characterized by high inhibitory activity on elastases, especially human leukocyte elastase (HLE). […] These efficacy parameters for HLE inhibition, Ki^ss and k5/Ki, are defined in the equation below, representing the interaction of the enzyme (E) with the compounds (I), which is monitored (see Protocol) in the presence of a […] enzyme substrate (S): [formula]
Kinetic parameters of HLE (Elastin Product Company) were determined at 37° C., 0.027M pH 7.4 phosphate buffer, […], 1% MeCN, NaCl (I=0.15), by monitoring the release of 7-amino-4-methylcoumarin (fluorescence detection) from N-methoxysuccinyl-alanyl-prolyl-valyl-7-amido-4-methylcoumarin as the substrate, according to the equations: [formula]
Full details of the Experimental Protocol are reported in M. Alpegiani et al., Eur. J. Med. Chem. 1992, 27, 875-890.

Row | "Efficiency" k5/Ki (rate of formation of the HLE-inhibitor complex) | Ki | SMILES
1 | 27,000 M^−1s^−1 | 20 nM | CO[C@H]1C(=O)N2C(C(=O)N3CCCC3)=C(C)C(Sc3nc(=O)c(O)nn3C)S(=O)(=O)[C@H]12 (stereo partly drawn) [Compound No. 11, (6R,7S)-4-(6-Hydroxy-2-methyl-5-oxo-2,5-dihydro-[1,2,4]triazin-3-yl-sulfanyl)-7-methoxy-3-methyl-5,5-dioxo-2-(pyrrolidine-1-carbonyl)-5-thia-1-aza-bicyclo [4.2.0]oct-2-en-8-one]
2 | 9,200 M^−1s^−1 | 100 nM | CO[C@H]1C(=O)N2C(C(=O)N3CCCC3)=C(CSc3nc(=O)c(=O)[nH]n3C)CS(=O)(=O)[C@H]12 [Reference, reference compound]

Row | SMILES | "Efficiency" k5/Ki (rate of formation of the HLE-inhibitor complex) | Ki
3 | CO[C@H]1C(=O)N2C(C(=O)N3CCCC3)=C(C)C(OC(=O)c3c(C)cc(C)cc3C)S(=O)(=O)[C@H]12 (stereo partly drawn) [Compound No. 1, 2,4,6-Trimethylbenzoic Acid (6R,7S)-7-methoxy-3-methyl-5,5,8-trioxo-2-(pyrrolidine-1-carbonyl)-5-thia-1-aza-bicyclo[4.2.0] oct-2-en-4-yl Ester] | 800,000 M^−1s^−1 | < 2 nM
